BigSolDB 2.1

COc1cc(/C=C/C(=O)CC(=O)/C=C/c2ccc(O)c(OC)c2)ccc1O
solubility (mole fraction)
Settings | 278.15 K | 283.15 K | 288.15 K | 293.15 K | 298.15 K | 303.15 K | 308.15 K | 313.15 K | 318.15 K | 323.15 K
in DMSO | 0.137 | 0.16 | 0.184 | 0.211 | 0.24 | 0.271 | 0.303 | 0.338 | 0.375 | 0.413
in THF | 0.113 | 0.134 | 0.157 | 0.183 | 0.211 | 0.239 | 0.27 | 0.302 | 0.336 | 0.371
in acetone | 0.00834 | 0.00986 | 0.0118 | 0.0138 | 0.0162 | 0.0189 | 0.022 | 0.0257 | 0.0298 | 0.0345
in acetonitrile | 0.00071 | 0.00083 | 0.00097 | 0.00113 | 0.00129 | 0.00149 | 0.00169 | 0.00194 | 0.00221 | 0.00253
in ethanol | 0.00041 | 0.00048 | 0.00056 | 0.00065 | 0.00075 | 0.00086 | 0.00098 | 0.00111 | 0.00127 | 0.00145
in ethyl acetate | 0.00176 | 0.00199 | 0.00227 | 0.00253 | 0.00285 | 0.00319 | 0.00357 | 0.00399 | 0.00447 | 0.00501
in isopropanol | 0.00156 | 0.00177 | 0.002 | 0.00226 | 0.00254 | 0.00285 | 0.00319 | 0.00356 | 0.00398 | 0.00444
in m-xylene | 0.00015 | 0.00018 | 0.00022 | 0.00026 | 0.00031 | 0.00036 | 0.00042 | 0.00049 | 0.00057 | 0.00066
in methanol | 0.00029 | 0.00033 | 0.00038 | 0.00044 | 0.0005 | 0.00057 | 0.00066 | 0.00075 | 0.00087 | 0.001
in n-butanol | 0.00049 | 0.00057 | 0.00066 | 0.00075 | 0.00086 | 0.00099 | 0.00114 | 0.00131 | 0.00151 | 0.00175
in n-heptane | 5e-05 | 9e-05 | 0.00013 | 0.00017 | 0.00022 | 0.00027 | 0.00032 | 0.00038 | 0.00044 | 0.00052
in n-hexane | 7e-05 | 0.00011 | 0.00015 | 0.00019 | 0.00024 | 0.00029 | 0.00035 | 0.00041 | 0.00048 | 0.00057
